Like-named read-outs stand apart in the source and are kept apart here.
Experiments:
[1] = processed extract sample, 24h
[2] = human
[3] = human, 6 h
[4] = test system: Mycobacterium tuberculosis; conditions: not measured in this paper, cited from earlier work
[5] = Phase Ia clinical pharmacokinetic trial, plasma levels in healthy volunteers; conditions: human
Procedure: The phase 1a clinical study assessing the safety and pharmacokinetics of PBTZ169 in healthy volunteers (NCT03423030), was performed at the Service of Clinical Pharmacology of the Lausanne University Hospital and was approved on 06.09.2017 (2017–01241) by the Ethics Committee of the Canton of Vaud (CER-VD) and on 17.11.2017 (2017DR1171) by Swissmedic. All volunteers gave their written informed consent.
The concentration measured in this plasma sample is 464 ng/mL, 147 ng/mL, 13 ng/mL, 12 ng/mL and 2 ng/mL for PBTZ169, Met 3-OH, Met 3-oxo, Met amino and Met 1-OH, respectively. […] Of note, measured plasma levels were multiplied by the factor 1.1 accounting for the blood 10:1 dilution due to citrate solution.

[6] = format: physicochemical; conditions: DMSO:MeOH (1:1 v/v), -20°C
Procedure: Each compound was independently weighed and the corresponding powder dissolved in the required volume of DMSO to give a 1 mg/mL stock solution of the compound that was sonicated for 5 minutes. The stock solution used for PBTZ169 was corrected for salt form of the analyte by applying the weighing factor (0.926). Due to the high purity of the PBTZ169 and the five metabolites, no additional correcting factors were applied for preparing compounds stock solutions. Stock solutions were prepared in 5 mL PP tubes and stored at -20°C. The stability of these solutions was verified over a period of 6 months (mean bias < 8%) and of 9 months (mean bias < 9%)
PBTZ169 and metabolites mixture solutions. Two distinct working solutions (WS) including PBTZ169 together with its five active metabolites were prepared: one for calibration standards and one for validation standards/quality control (QC) samples. Working solutions including all the analytes at 100 μg/mL were obtained by adding the required volumes of compounds stock solutions (50 μL) to 200 μL of a DMSO/MeOH (1:1 v/v) mixture in safe-lock 1.5 mL PP tubes. Spiking solutions for calibration, validation standards and QCs at the appropriate concentrations were prepared by applying sequential dilutions in DMSO/MeOH (1:1 v/v) mixture starting from the dedicated WS in safe-lock 1.5 mL PP tubes and thoroughly mixed. […]

[7] = Long-term stability in plasma; format: in vitro ADME, human; conditions: -20°C and -80°C
Procedure: Long-term stability in plasma. Stability in citrated plasma stored at -20°C and -80°C in suitable tubes for long-term storage (1, 3, 6 and 12 months) was evaluated at 1, 10, 100 and 1000 ng/mL. Deviations of the mean concentrations (n = 3) of samples measured at each time points from the nominal concentrations were calculated.

Compound	% from t0 ([1]; 4°C, level H (QC 1500 ng/mL)) [%]	% from t0 ([1]; 4°C, level L (QC 2 ng/mL)) [%]	% from t0 ([1]; 4°C, level M (QC 150 ng/mL)) [%]	% from t0 ([1]; RT, level H (QC 1500 ng/mL)) [%]	% from t0 ([1]; RT, level L (QC 2 ng/mL)) [%]	% from t0 ([1]; RT, level M (QC 150 ng/mL)) [%]	% from t0 ([2]; 1 h, 10 ng/mL) [%]	% from t0 ([2]; 1 h, 20 ng/mL) [%]	% from t0 ([2]; 1 h, 50 ng/mL) [%]	% from t0 ([2]; 1 h, 100 ng/mL) [%]	% from t0 ([2]; 1 h, 200 ng/mL) [%]	% from t0 ([2]; 1 h, 500 ng/mL) [%]	% from t0 ([2]; 2 h, 10 ng/mL) [%]	% from t0 ([2]; 2 h, 20 ng/mL) [%]	% from t0 ([2]; 2 h, 50 ng/mL) [%]	% from t0 ([2]; 2 h, 100 ng/mL) [%]	% from t0 ([2]; 2 h, 200 ng/mL) [%]	% from t0 ([2]; 2 h, 500 ng/mL) [%]	% from t0 ([2]; 4 h, 10 ng/mL) [%]	anti-TB activity in vitro (active / inactive) [4]	other results
O=c1nc(N2CCN(CC3CCCC(O)C3)CC2)sc2c([N+](=O)[O-])cc(C(F)(F)F)cc12 (centres unmarked) [Met 3-OH]	-2	-14	-9	-14	-59	-36	6	8	12	5	5	8	7	7	12	4	1	9	4	active	% from t0 ([2]; 4 h, 20 ng/mL): 12%; % from t0 ([2]; 4 h, 50 ng/mL): 15%; % from t0 ([2]; 4 h, 100 ng/mL): 4%; % from t0 ([2]; 4 h, 200 ng/mL): 6%; % from t0 ([2]; 4 h, 500 ng/mL): 1%; % from freshly processed samples (n=2) ([3]; 0.2 ng/mL): 3%; % from freshly processed samples (n=2) ([3]; 0.5 ng/mL): -14%; % from freshly processed samples (n=2) ([3]; 1 ng/mL): -13%; % from freshly prepared samples ([3]; 2 ng/mL): -7%; % from freshly processed samples (n=2) ([3]; 2 ng/mL): -10%; % from freshly processed samples (n=2) ([3]; 50 ng/mL): -8%; % from freshly prepared samples ([3]; 150 ng/mL): -5%; % from freshly processed samples (n=2) ([3]; 500 ng/mL): -6%; % from freshly processed samples (n=2) ([3]; 1000 ng/mL): -1%; % from freshly prepared samples ([3]; 1500 ng/mL): -4%; % from freshly processed samples (n=2) ([3]; 2000 ng/mL): -2%
O=c1nc(N2CCN(CC3CCCCC3O)CC2)sc2c([N+](=O)[O-])cc(C(F)(F)F)cc12 (centres unmarked) [Met 2-OH]	-4	-16	-10	-18	-61	-39	1	1	-10	2	-2	-9	-1	-1	-17	-2	-5	-15	-3	active	detection in vivo in plasma [5]: not detected; % from t0 ([2]; 4 h, 20 ng/mL): -2%; % from t0 ([2]; 4 h, 50 ng/mL): -30%; % from t0 ([2]; 4 h, 100 ng/mL): -3%; % from t0 ([2]; 4 h, 200 ng/mL): -6%; % from t0 ([2]; 4 h, 500 ng/mL): -26%; % from freshly processed samples (n=2) ([3]; 0.5 ng/mL): -16%; % from freshly processed samples (n=2) ([3]; 1 ng/mL): -6%; % from freshly prepared samples ([3]; 2 ng/mL): -8%; % from freshly processed samples (n=2) ([3]; 2 ng/mL): -6%; % from freshly processed samples (n=2) ([3]; 50 ng/mL): -4%; % from freshly prepared samples ([3]; 150 ng/mL): -4%; % from freshly processed samples (n=2) ([3]; 500 ng/mL): -3%; % from freshly processed samples (n=2) ([3]; 1000 ng/mL): 0%; % from freshly prepared samples ([3]; 1500 ng/mL): -4%; % from freshly processed samples (n=2) ([3]; 2000 ng/mL): -2%
O=C1CCCC(CN2CCN(c3nc(=O)c4cc(C(F)(F)F)cc([N+](=O)[O-])c4s3)CC2)C1 (centres unmarked) [Met 3-oxo]	-2	-14	-9	-10	-58	-37	-1	-6	-22	0	-9	-22	-5	-9	-32	-5	-11	-31	-9	active	concentration deviation in whole blood ([2]; 4 h): exceeded the accepted -15% limit; % from t0 ([2]; 4 h, 20 ng/mL): -15%; % from t0 ([2]; 4 h, 50 ng/mL): -51%; % from t0 ([2]; 4 h, 100 ng/mL): -10%; % from t0 ([2]; 4 h, 200 ng/mL): -18%; % from t0 ([2]; 4 h, 500 ng/mL): -50%; % from freshly processed samples (n=2) ([3]; 0.2 ng/mL): 6%; % from freshly processed samples (n=2) ([3]; 0.5 ng/mL): -14%; % from freshly processed samples (n=2) ([3]; 1 ng/mL): -2%; % from freshly prepared samples ([3]; 2 ng/mL): -4%; % from freshly processed samples (n=2) ([3]; 2 ng/mL): -10%; % from freshly processed samples (n=2) ([3]; 50 ng/mL): -6%; % from freshly prepared samples ([3]; 150 ng/mL): -4%; % from freshly processed samples (n=2) ([3]; 500 ng/mL): -4%; % from freshly processed samples (n=2) ([3]; 1000 ng/mL): 0%; % from freshly prepared samples ([3]; 1500 ng/mL): -4%; % from freshly processed samples (n=2) ([3]; 2000 ng/mL): -1%
O=C(C1CCCCC1)N1CCN(c2nc(=O)c3cc(C(F)(F)F)cc([N+](=O)[O-])c3s2)CC1 [Met oxo]	4	-3	5	25	6	29	1	1	-1	-1	0	-5	-3	-4	-8	-3	1	-5	-1	active	detection in vivo in plasma [5]: not detected; % from t0 ([2]; 4 h, 20 ng/mL): 0%; % from t0 ([2]; 4 h, 50 ng/mL): -6%; % from t0 ([2]; 4 h, 100 ng/mL): -4%; % from t0 ([2]; 4 h, 200 ng/mL): 1%; % from t0 ([2]; 4 h, 500 ng/mL): -8%; % from freshly processed samples (n=2) ([3]; 0.5 ng/mL): -11%; % from freshly processed samples (n=2) ([3]; 1 ng/mL): -12%; % from freshly prepared samples ([3]; 2 ng/mL): -6%; % from freshly processed samples (n=2) ([3]; 2 ng/mL): -6%; % from freshly processed samples (n=2) ([3]; 50 ng/mL): -10%; % from freshly prepared samples ([3]; 150 ng/mL): -8%; % from freshly processed samples (n=2) ([3]; 500 ng/mL): -8%; % from freshly processed samples (n=2) ([3]; 1000 ng/mL): -3%; % from freshly prepared samples ([3]; 1500 ng/mL): -5%; % from freshly processed samples (n=2) ([3]; 2000 ng/mL): -3%
Nc1cc(C(F)(F)F)cc2c(=O)nc(N3CCN(CC4CCCCC4)CC3)sc12 [Met amino]	–	–	–	–	–	–	–	–	–	–	–	–	–	–	–	–	–	–	–	inactive	time working solutions are stable [6]: ≥ 3 months; time spiked plasma samples stability has been verified [7]: 1 month; anti-TB activity in vitro (active / inactive) ([4]; listed as amino metabolite): devoid of anti-TB activity
O=c1nc(N2CCN(CC3(O)CCCCC3)CC2)sc2c([N+](=O)[O-])cc(C(F)(F)F)cc12 [Met 1-OH]	-2	-12	-9	-12	-55	-33	4	3	-1	2	-1	-4	1	-2	-4	0	-3	-6	-1	active	plasma levels in volunteers ([5]; in vivo): below 0.5 ng/mL; % from t0 ([2]; 4 h, 20 ng/mL): 0%; % from t0 ([2]; 4 h, 50 ng/mL): -9%; % from t0 ([2]; 4 h, 100 ng/mL): -2%; % from t0 ([2]; 4 h, 200 ng/mL): -4%; % from t0 ([2]; 4 h, 500 ng/mL): -11%; % from freshly processed samples (n=2) ([3]; 0.5 ng/mL): -15%; % from freshly processed samples (n=2) ([3]; 1 ng/mL): -9%; % from freshly prepared samples ([3]; 2 ng/mL): -4%; % from freshly processed samples (n=2) ([3]; 2 ng/mL): -4%; % from freshly processed samples (n=2) ([3]; 50 ng/mL): -1%; % from freshly prepared samples ([3]; 150 ng/mL): -3%; % from freshly processed samples (n=2) ([3]; 500 ng/mL): -1%; % from freshly processed samples (n=2) ([3]; 1000 ng/mL): 0%; % from freshly prepared samples ([3]; 1500 ng/mL): -2%; % from freshly processed samples (n=2) ([3]; 2000 ng/mL): -1%

Reference: article PMC6544242, “Development and validation of a multiplex UHPLC-MS/MS method for the determination of the investigational antibiotic against multi-resistant tuberculosis macozinone (PBTZ169) and five active metabolites in human plasma” (PLoS ONE, 2019)
